From ChEMBL document CHEMBL1156505, “Allosteric transinhibition by specific antagonists in CCR2/CXCR4 heterodimers” (J Biol Chem, 2007)
Active and inactive are the calls of the source. The rule behind the calls is not given here.

Experiments:
[1] = target: T1, C-C chemokine receptor type 2 (Homo sapiens, UniProt P41597); assay: Displacement of [125I]MCP1 from CCR2/CXCR4 expressed in CHOK1 cells; assay type: cell-based; conditions: CHO-K1; concentration not given here
Target sequence in this assay (P41597 whole entry, looked up): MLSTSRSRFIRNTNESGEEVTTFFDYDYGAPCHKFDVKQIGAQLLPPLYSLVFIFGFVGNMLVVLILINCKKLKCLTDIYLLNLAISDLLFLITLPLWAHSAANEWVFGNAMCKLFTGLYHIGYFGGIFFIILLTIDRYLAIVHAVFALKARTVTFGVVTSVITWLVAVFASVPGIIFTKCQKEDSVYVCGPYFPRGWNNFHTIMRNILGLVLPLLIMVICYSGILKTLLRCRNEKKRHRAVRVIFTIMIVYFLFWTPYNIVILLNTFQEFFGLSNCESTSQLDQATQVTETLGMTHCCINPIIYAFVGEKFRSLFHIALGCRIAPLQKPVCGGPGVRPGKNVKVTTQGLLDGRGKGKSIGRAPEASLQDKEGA

[2] = target: T1, C-C chemokine receptor type 2; assay: Displacement of [125I]SDF1alpha from CCR2/CXCR4 expressed in CHOK1 cells; assay type: cell-based; conditions: CHO-K1; concentration not given here
Target sequence in this assay (P41597 whole entry, looked up): as above

Homo sapiens = species on record: Homo sapiens; assay: Inhibition of migration of human CD4+ lymphoblasts towards MCP1 by chemotaxis assay; assay type: functional
[3] = target: T1, C-C chemokine receptor type 2; assay: biochemical
Target sequence in this assay (P41597 whole entry): as the sequence (P41597 whole entry, looked up) above
Description: Displacement of [125I]MCP1 from CCR2 expressed in CHOK1 cells

Work on c1cc(CN2CCCNCCNCCCNCC2)ccc1CN1CCCNCCNCCCNCC1 yielded an inhibition [1] of 36.2% and an inhibition [2] of 87.1%.

For Cc1ccc(-c2ccc3c(c2)C=C(C(=O)Nc2ccc(C[N+](C)(C)C4CCOCC4)cc2)CCC3)cc1, the inhibition [1] was 90.7%, the inhibition [2] was 38.1% and the Activity (Homo sapiens) was “Active”. The IC50 [3] was 0.25 nM.
